Measured values reported in the NIST ThermoML archive (doi:10.1021/je400402n).

Settings: 101 kPa, Liquid, HP 4194A impedance-gain phase analyzer

C[S+](C)[O-] [dimethyl sulfoxide]
Settings	electrical conductivity [S/m]
293.15 K	0.000188
295.15 K	0.000201
297.15 K	0.000211
299.15 K	0.000225
301.15 K	0.000236
303.15 K	0.000248
305.15 K	0.000262
307.15 K	0.000274
309.15 K	0.000287
311.15 K	0.0003
313.15 K	0.000315
315.15 K	0.000328
317.15 K	0.000341
319.15 K	0.000355
321.15 K	0.000369
323.15 K	0.000384
325.15 K	0.000399
327.15 K	0.000419
329.15 K	0.000437
331.15 K	0.000455
333.15 K	0.000474
